Measurements from patent publication US20260062388A1, “POLYMORPHIC FORM OF NEPICASTAT ACID ADDITION SALT, PREPARATION METHOD THEREFOR AND USE THEREOF” (Jiangsu Yahong Meditech Co., Ltd., priority 2022, published 2026).

Legend:
[1] = Dynamic vapor sorption (DVS) hygroscopicity; type: physicochemical
Method: DVS curves are acquired on DVS Intrinsic from SMS (Surface Measurement Systems). • Testing temperature: 25° C. • Sample amount: 10-20 mg • dm/dt: 0.002%/min; • RH range: 0% RH-95% RH-0% RH • RH gradient: 10%

[2] = Approximate solubility test on crystal forms of hydrochloride salt of nepicastat at room temperature; type: physicochemical; conditions: thermodynamic from solid, room temperature
[3] = Accelerated stability test (40° C./75% RH) of crystal form I; type: physicochemical; conditions: for Moisture (KF, w/w %) / Related substances (w/w %): Total impurities / Chiral purity (%) / Content (HPLC, w/w %): 40° C. ± 2° C./75% RH ± 5% RH; for Chiral purity (%): S-enantiomer; for Content (HPLC, w/w %): deducting residual solvent(s) and moisture
[4] = Bioavailability test, intravenous and oral administration to mice; conditions: mouse, in vivo, IV 15 mg/kg, PO 30 mg/kg
From the text: The crystal forms I and II of hydrochloride salt of nepicastat and the crystal forms of other acid addition salts of nepicastat in Table 31 were taken, and administered intravenously and orally to mice respectively, wherein: • the formulation for intravenous (IV) administration was: 5% (v/v) DMSO+10% (v/v) Solutol HS 15+85% (v/v) physiological saline; • the formulation for oral (PO) administration was: 0.5% (v/v) MC4000 aqueous solution (MC: methylcellulose).
The specific administration was as follows: • Experiment: three mice were subjected to the test in parallel for each formulation; • Body weight: about 30 g • Administration route: IV; PO • Dose administered: IV-15 mg/kg; PO-30 mg/kg; • Before administration: fasting for 12 hours before administration, and allowing mice to drink water; • After administration: allowing mice to drink water, and feeding within 2 hours after administration; • Blood collecting site: the vein at a hind leg • Blood collecting times: IV—0.083, 0.25, 0.5, 1, 2, 4, 6, 8, 24 h; • PO—0.25, 0.5, 1, 2, 4, 6, 8, 24 h.
Due to very close solubilities of the crystal forms I and II of hydrochloride salt of nepicastat in water, it was found in the experiment that both of them obtained clear solutions upon preparing the administration samples.

[5] = Long-term stability test (25° C./60% RH) of crystal form I; type: physicochemical; conditions: for Moisture (KF, w/w %) / Related substances (w/w %): Total impurities / Chiral purity (%) / Content (HPLC, w/w %): 25° C. ± 2° C./60% RH ± 5% RH; for Chiral purity (%): S-enantiomer; for Content (HPLC, w/w %): deducting residual solvent(s) and moisture
[6] = Stability studies under relatively harsh conditions (40° C., 40° C./75% RH, 60° C., 60° C./75% RH) on crystal forms I and II; type: physicochemical; conditions: for crystal form stability (XRPD pattern): 15 days

Cl.NCc1c[nH]c(=S)n1[C@H]1CCc2c(F)cc(F)cc2C1.O [crystal form I of hydrochloride salt, (S)-5-aminomethyl-1-(5,7-difluoro-1,2,3,4-tetrahydronaphthalen-2-yl)-1,3-dihydroimidazole-2-thione hydrochloride monohydrate]
hygroscopicity of the sample ([1]; DVS, 0% RH to 80% RH): slight hygroscopicity | weight gain by hygroscopicity ([1]; DVS, from 0% RH to 80% RH, 25° C.): about 1.036% | crystal form before and after the DVS test ([1]; XRPD before and after DVS): remained unchanged | solubility ([2]; aqueous with cosolvent or surfactant or cyclodextrin, solvent 15% Isopropanol): 20000 to 27000 µg/mL | solubility ([2]; aqueous with cosolvent or surfactant or cyclodextrin, solvent 30% Methanol): 21000 to 42000 µg/mL | solubility ([2]; aqueous with cosolvent or surfactant or cyclodextrin, solvent 50% Acetonitrile): 80000 to 100000 µg/mL | solubility ([2]; aqueous with cosolvent or surfactant or cyclodextrin, solvent 50% Ethanol): 20000 to 27000 µg/mL | solubility ([2]; aqueous with cosolvent or surfactant or cyclodextrin, solvent 50% Isopropanol): 40000 to 80000 µg/mL | solubility ([2]; aqueous with cosolvent or surfactant or cyclodextrin, solvent 50% Tetrahydrofuran): 100000 to 130000 µg/mL | solubility ([2]; organic solvent or mixture, solvent 1,4-Dioxane): < 1000 µg/mL | solubility ([2]; organic solvent or mixture, solvent 2-Butanone): < 1000 µg/mL | solubility ([2]; organic solvent or mixture, solvent 2-Methyltetrahydrofuran): < 1000 µg/mL | solubility ([2]; organic solvent or mixture, solvent Acetone): < 1000 µg/mL | solubility ([2]; organic solvent or mixture, solvent Acetonitrile): 40 µg/mL | solubility ([2]; organic solvent or mixture, solvent Chloroform): 380 µg/mL | solubility ([2]; organic solvent or mixture, solvent Dichloromethane): < 10 µg/mL | solubility ([2]; organic solvent or mixture, solvent Ethanol): 6500 µg/mL | solubility ([2]; organic solvent or mixture, solvent Ethyl acetate): 10 µg/mL | solubility ([2]; organic solvent or mixture, solvent Isopropanol): 6000 µg/mL | solubility ([2]; organic solvent or mixture, solvent Methanol): 33000 µg/mL | solubility ([2]; organic solvent or mixture, solvent Methyl tert-butyl ether): < 1000 µg/mL | solubility ([2]; organic solvent or mixture, solvent N-hexane): < 10 µg/mL | solubility ([2]; organic solvent or mixture, solvent Propanol): 11700 µg/mL | solubility ([2]; organic solvent or mixture, solvent Propylene carbonate): 140 µg/mL | solubility ([2]; organic solvent or mixture, solvent Tetrahydrofuran): 90 µg/mL | solubility ([2]; solvent Purified water): 7400 µg/mL | Moisture (KF, w/w %) ([3]; 1 months): 5.8 w/w % | Related substances (w/w %): Total impurities ([3]; 1 months): not detected | Chiral purity (%) ([3]; 1 months): 99.8% | Content (HPLC, w/w %) ([3]; 1 months): 100.4 w/w % | Moisture (KF, w/w %) ([3]; 2 months): 5.7 w/w % | Related substances (w/w %): Total impurities ([3]; 2 months): not detected | Chiral purity (%) ([3]; 2 months): 99.8% | Content (HPLC, w/w %) ([3]; 2 months): 99.6 w/w % | Moisture (KF, w/w %) ([3]; 3 months): 5.7 w/w % | Related substances (w/w %): Total impurities ([3]; 3 months): not detected | Chiral purity (%) ([3]; 3 months): 99.8% | Content (HPLC, w/w %) ([3]; 3 months): 100.4 w/w % | Moisture (KF, w/w %) ([3]; 6 months): 5.8 w/w % | Related substances (w/w %): Total impurities ([3]; 6 months): not detected | Chiral purity (%) ([3]; 6 months): 99.8% | Content (HPLC, w/w %) ([3]; 6 months): 100.1 w/w % | Moisture (KF, w/w %) ([3]; Initial): 5.9 w/w % | Related substances (w/w %): Total impurities ([3]; Initial): not detected | Chiral purity (%) ([3]; Initial): 99.8% | Content (HPLC, w/w %) ([3]; Initial): 100.3 w/w % | accelerated stability ([3]; 40° C./75% RH, double-layer polyethylene bag): no significant change in the detection results | bioavailability [4]: > 70% | Moisture (KF, w/w %) ([5]; 3 months): 5.7 w/w % | Related substances (w/w %): Total impurities ([5]; 3 months): not detected | Chiral purity (%) ([5]; 3 months): 99.8% | Content (HPLC, w/w %) ([5]; 3 months): 100.8 w/w % | Moisture (KF, w/w %) ([5]; 6 months): 6.0 w/w % | Related substances (w/w %): Total impurities ([5]; 6 months): not detected | Chiral purity (%) ([5]; 6 months): 99.8% | Content (HPLC, w/w %) ([5]; 6 months): 100.3 w/w % | Moisture (KF, w/w %) ([5]; 9 months): 6.3 w/w % | Related substances (w/w %): Total impurities ([5]; 9 months): not detected | Chiral purity (%) ([5]; 9 months): 99.8% | Content (HPLC, w/w %) ([5]; 9 months): 100.5 w/w % | Moisture (KF, w/w %) ([5]; 12 months): 6.2 w/w % | Related substances (w/w %): Total impurities ([5]; 12 months): not detected | Chiral purity (%) ([5]; 12 months): 99.8% | Content (HPLC, w/w %) ([5]; 12 months): 100.0 w/w % | Moisture (KF, w/w %) ([5]; Initial): 5.9 w/w % | Related substances (w/w %): Total impurities ([5]; Initial): not detected | Chiral purity (%) ([5]; Initial): 99.8% | Content (HPLC, w/w %) ([5]; Initial): 100.3 w/w % | long-term stability ([5]; 25° C./60% RH, double-layer polyethylene bag): no significant change in the detection results | crystal form stability (XRPD pattern) ([6]; 60° C.): stable | crystal form stability (XRPD pattern) ([6]; 60° C./75% RH): stable | impurity produced due to degradation ([6]; solid left at 60° C. for 15 days): no significant impurity to produce due to degradation | impurity produced due to degradation ([6]; solid left at 60° C./75% RH for 15 days): no significant impurity to produce due to degradation
